Data set [1] has as its target T1, cannabinoid CB1-type receptor (Mus musculus, UniProt P47746).
T1 construct: male CD1 mice received the test product per os; from tissue; host or cells: whole animal, male CD1 mice
In words: inhibition of gastrointestinal transit induced by racemic CP55,940 in mice. It counts as in vivo. The following applies: 1 mg/kg per os; 3 hours after administration of the product; male CD1 mice; CP55,940 0.15 mg/kg ip. The protocol:
After a further 30 minutes, the animals received a charcoal bolus po. Thirty minutes later, the animals are sacrificed by euthanasia (CO2/O2) and the intestine is dissected. The progression of the charcoal bolus in the intestine is expressed as percentage of the total length of the intestine.

The target in data set [2] is human CB1 receptor (Homo sapiens, UniProt P21554). In words: cell-based. The protocol: The compounds according to the invention were the subject of pharmacological tests for determining the activity with respect to human cannabinoid CB1-type receptors. The efficacy of the compounds of formula (I) was determined in a functional test which measures cannabinoid CB1 receptor activity (intracellular cyclic AMP test). The test for detecting intracellular cyclic AMP in U373MG cells naturally expressing the human CB1 receptor was carried out as described in the reference: Bouaboula et al., 1995, J. Biol. Chem. 270:13973-13980. The HTRF cAMP Dynamic Kit from CisBio was used to quantify the intracellular cyclic AMP.
human CB1 receptor, sequence (P21554 whole entry): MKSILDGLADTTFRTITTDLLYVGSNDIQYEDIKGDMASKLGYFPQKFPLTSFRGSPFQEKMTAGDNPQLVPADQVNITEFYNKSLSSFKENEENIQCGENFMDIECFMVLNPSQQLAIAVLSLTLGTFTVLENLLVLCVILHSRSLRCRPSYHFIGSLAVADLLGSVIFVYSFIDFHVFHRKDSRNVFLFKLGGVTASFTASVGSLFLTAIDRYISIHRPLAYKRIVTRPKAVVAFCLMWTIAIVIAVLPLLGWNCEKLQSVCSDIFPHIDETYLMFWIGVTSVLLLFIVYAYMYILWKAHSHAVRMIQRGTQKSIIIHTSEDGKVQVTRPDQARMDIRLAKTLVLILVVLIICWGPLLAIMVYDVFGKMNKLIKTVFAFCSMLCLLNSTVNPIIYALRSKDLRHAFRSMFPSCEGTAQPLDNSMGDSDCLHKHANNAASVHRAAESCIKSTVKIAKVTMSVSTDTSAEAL

In data set [3] the target is cannabinoid CB receptor (Mus musculus, UniProt P47746). In words: hypothermia induced by cannabinoid CB receptor agonist CP55,940 in mice. The following applies: 3 mg/kg po; male CD1 mice; CP55,940 1.25 mg/kg i.p.; rectal temperature at 90 minutes.
cannabinoid CB receptor, sequence (P47746 whole entry): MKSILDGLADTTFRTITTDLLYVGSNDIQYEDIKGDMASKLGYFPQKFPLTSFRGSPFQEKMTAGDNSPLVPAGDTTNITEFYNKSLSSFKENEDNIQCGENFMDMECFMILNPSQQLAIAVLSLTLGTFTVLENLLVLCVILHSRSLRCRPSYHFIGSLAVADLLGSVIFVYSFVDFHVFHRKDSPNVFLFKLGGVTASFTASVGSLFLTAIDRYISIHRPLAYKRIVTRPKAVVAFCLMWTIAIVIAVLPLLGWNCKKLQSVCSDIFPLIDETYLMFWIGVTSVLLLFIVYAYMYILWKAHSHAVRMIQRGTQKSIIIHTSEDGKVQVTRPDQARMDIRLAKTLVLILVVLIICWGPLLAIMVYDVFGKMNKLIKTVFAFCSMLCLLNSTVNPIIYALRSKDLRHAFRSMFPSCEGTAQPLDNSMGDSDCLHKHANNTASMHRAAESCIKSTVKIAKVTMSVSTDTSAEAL
Procedure: At time 0 min, the rectal temperature of male CD1 mice is measured before injection of the test product. At 30 minutes, a further measurement of the rectal temperature of the mice is taken and the racemic CP55,940 agonist ORS, 3RS, 4RS-3-[hydroxy-2-(1,1-dimethylheptyl)phenyl]-4-(3-hydroxypropyl)cyclohexan-1-ol) (1.25 mg/kg i.p. in 10% cremophor) is administered. At 90 minutes, the rectal temperature is again taken. The results are expressed as % relative to the control batch injected with the CP55,940 (minimum temperature) and to the carrier batch without CP55,940 treatment (maximum temperature).

T1 sequence (P47746 whole entry): as above

Regarding `C[C@H](NC(=O)c1cccc(N(C2CN(C(c3ccc(Cl)cc3)c3ccc(Cl)cc3)C2)S(C)(=O)=O)c1)C(N)=O`, the “percentages of inhibition (gastrointestinal transit model)” value in data set [1] is 39.2%. Moreover, the IC50 – broadly, the concentration that inhibits the measured activity by half – in data set [2] was 43 nM. In addition, the “percentages of inhibition of the decrease in temperature induced by the agonist” value in data set [3] came out at 5%. Consider `C[C@H](NC(=O)c1cc(F)cc(N(C2CN(C(c3ccc(Cl)cc3)c3ccc(Cl)cc3)C2)S(C)(=O)=O)c1)C(N)=O`, for which, in data set [1], the “percentages of inhibition (gastrointestinal transit model)” value was found to be 49%. In addition, inhibition in data set [2] was half-maximal at 9 nM (IC50). In data set [2], `C[C@@H](NC(=O)c1cc(F)cc(N(C2CN(C(c3ccc(Cl)cc3)c3ccc(Cl)cc3)C2)S(C)(=O)=O)c1)C(N)=O` showed an IC50 of 284 nM. For `COc1cc(NS(=O)(=O)CC2CN(C(c3ccc(Cl)cc3)c3ccc(Cl)cc3)C2)cc(C(=O)N[C@@H](C)C(N)=O)c1` (hydrate or solvate) [compound 22, 3-({1-[bis(4-chlorophenyl)methyl]azetidin-3-yl}methanesulphonylamino)-N—((S)-1-carbamoylethyl)-5-methoxybenzamide], the melting point – broadly, the temperature of the solid-liquid transition – is 183 to 185 °C.

`C[C@H](NC(=O)c1cccc(NS(=O)(=O)CC2CN(C(c3ccc(Cl)cc3)c3ccc(Cl)cc3)C2)c1)C(N)=O` [Compound No. 1, 3-({1-[bis(4-chlorophenyl)methyl]azetidin-3-yl}methanesulphonylamino)-N—((S)-1-carbamoylethyl)benzamide] gave a melting point of 229 °C. The same measure, in the same setting: under `NC(=O)CNC(=O)c1cc(F)cc(NS(=O)(=O)CC2CN(C(c3ccc(Cl)cc3)c3ccc(Cl)cc3)C2)c1` [Compound No. 2, 3-({1-[bis(4-chlorophenyl)methyl]azetidin-3-yl}methanesulphonylamino)-N-carbamoylmethyl-5-fluorobenzamide] stands 154 to 156 °C. The compound `C[C@H](NC(=O)c1cc(F)cc(NS(=O)(=O)CC2CN(C(c3ccc(Cl)cc3)c3ccc(Cl)cc3)C2)c1)C(N)=O` [Compound No. 3, 3-({1-[Bis(4-chlorophenyl)methyl]azetidin-3-yl}methanesulphonylamino)-N—((S)-1-carbamoylethyl)-5-fluorobenzamide] returned a melting point of 228 to 230 °C.

`C[C@@H](NC(=O)c1cc(F)cc(NS(=O)(=O)CC2CN(C(c3ccc(Cl)cc3)c3ccc(Cl)cc3)C2)c1)C(N)=O` [Compound No. 4, 3-({1-[bis(4-chlorophenyl)methyl]azetidin-3-yl}methanesulphonylamino)-N—((R)-1-carbamoylethyl)-5-fluorobenzamide]: the melting point is 219 to 221 °C. The same measure, in the same setting: under `C[C@@H](NC(=O)c1cccc(NS(=O)(=O)CC2CN(C(c3ccc(Cl)cc3)c3ccc(Cl)cc3)C2)c1)C(N)=O` [Compound No. 5, 3-({1-[Bis(4-chlorophenyl)methyl]azetidin-3-yl}methanesulphonylamino)-N—((R)-1-carbamoylethyl)benzamide] stands 235 °C. On the same count and under the same terms, under `NC(=O)CCNC(=O)c1cccc(NS(=O)(=O)CC2CN(C(c3ccc(Cl)cc3)c3ccc(Cl)cc3)C2)c1` [Compound No. 7, 3-({1-[bis(4-chlorophenyl)methyl]azetidin-3-yl}methanesulphonylamino)-N-(2-carbamoylethyl)benzamide] stands 190 to 192 °C. On the same count and under the same terms, under `O=C(NCC(=O)N1CCOCC1)c1cccc(NS(=O)(=O)CC2CN(C(c3ccc(Cl)cc3)c3ccc(Cl)cc3)C2)c1` [Compound No. 8, 3-({1-[bis(4-chlorophenyl)methyl]azetidin-3-yl}methanesulphonylamino)-N-(2-morpholin-4-yl-2-oxoethyl)benzamide] stands 176 °C. Take `CNC(=O)[C@H](C)NC(=O)c1cccc(NS(=O)(=O)CC2CN(C(c3ccc(Cl)cc3)c3ccc(Cl)cc3)C2)c1` [Compound No. 9, 3-({1-[bis(4-chlorophenyl)methyl]azetidin-3-yl}methanesulphonylamino)-N—((S)-1-methylcarbamoylethyl)benzamide]: the melting point fell in the range of 171 to 173 °C. The same measure, in the same setting: for `CC[C@H](NC(=O)c1cccc(NS(=O)(=O)CC2CN(C(c3ccc(Cl)cc3)c3ccc(Cl)cc3)C2)c1)C(N)=O` [compound 10, 3-({1-[bis(4-chlorophenyl)methyl]azetidin-3-yl}methanesulphonylamino)-N—((S)-1-carbamoylpropyl)benzamide] the value was 220 to 222 °C; for `NC(=O)[C@H](CO)NC(=O)c1cc(F)cc(NS(=O)(=O)CC2CN(C(c3ccc(Cl)cc3)c3ccc(Cl)cc3)C2)c1` [compound 13, 3-({1-[bis(4-chlorophenyl)methyl]azetidin-3-yl}methanesulphonylamino)-N—((S)-1-carbamoyl-2-hydroxyethyl)-5-fluorobenzamide], 212 to 214 °C. Still for that read-out and setting: under `CC[C@H](NC(=O)c1cc(F)cc(NS(=O)(=O)CC2CN(C(c3ccc(Cl)cc3)c3ccc(Cl)cc3)C2)c1)C(N)=O` [compound 14, 3-({1-[bis(4-chlorophenyl)methyl]azetidin-3-yl}methanesulphonylamino)-N—((S)-1-carbamoylpropyl)-5-fluorobenzamide] stands 212 to 214 °C; under `CNC(=O)CNC(=O)c1cccc(NS(=O)(=O)CC2CN(C(c3ccc(Cl)cc3)c3ccc(Cl)cc3)C2)c1` [compound 15, 3-({1-[bis(4-chlorophenyl)methyl]azetidin-3-yl}methanesulphonylamino)-N-(methylcarbamoylmethyl)benzamide], 216 °C; under `NC(=O)CNC(=O)c1cccc(NS(=O)(=O)CC2CN(C(c3ccc(Cl)cc3)c3ccc(Cl)cc3)C2)c1` [compound 16, 3-({1-[bis(4-chlorophenyl)methyl]azetidin-3-yl}methanesulphonylamino)-N-(carbamoylmethyl)benzamide], 196 to 198 °C. Same read-out and setting: for `CNC(=O)[C@H](C)NC(=O)c1cc(F)cc(NS(=O)(=O)CC2CN(C(c3ccc(Cl)cc3)c3ccc(Cl)cc3)C2)c1` [compound 26, 3-({1-[bis(4-chlorophenyl)methyl]azetidin-3-yl}methanesulphonylamino)-5-fluoro-N—((S)-1-methylcarbamoylethyl)benzamide] the value was 150 °C. `NC(=O)CCCNC(=O)c1cc(F)cc(NS(=O)(=O)CC2CN(C(c3ccc(Cl)cc3)c3ccc(Cl)cc3)C2)c1` [compound 28, 3-({1-[bis(4-chlorophenyl)methyl]azetidin-3-yl}methanesulphonylamino)-N-(3-carbamoylpropyl)-5-fluorobenzamide] showed a melting point of 186 °C. Turning to `CC[C@H](NC(=O)c1ccc(F)c(N(C2CN(C(c3ccc(Cl)cc3)c3ccc(Cl)cc3)C2)S(C)(=O)=O)c1)C(N)=O` [compound 36], in data set [2], inhibition was half-maximal at 952 nM (IC50). This lies in the sub-micromolar range. `Cc1cc(NS(=O)(=O)CC2CN(C(c3ccc(Cl)cc3)c3ccc(Cl)cc3)C2)cc(C(=O)N[C@@H](C)C(N)=O)c1` [compound 38, 3-({1-[bis(4-chlorophenyl)methyl]azetidin-3-yl}methanesulphonylamino)-N—((S)-1-carbamoylethyl)-5-methylbenzamide]: the “percentages of inhibition of the decrease in temperature induced by the agonist” value in data set [3] is given as 17%.

In the case of `CC[C@H](NC(=O)c1cc(NS(=O)(=O)CC2CN(C(c3ccc(Cl)cc3)c3ccc(Cl)cc3)C2)cc(C(F)(F)F)c1)C(N)=O` [compound 55, 3-({1-[bis(4-chlorophenyl)methyl]azetidin-3-yl}methanesulphonylamino)-N—((S)-1-carbamoylpropyl)-5-trifluoromethylbenzamide], the “percentages of inhibition (gastrointestinal transit model)” value in data set [1] was determined as 74%. Besides, the “percentages of inhibition of the decrease in temperature induced by the agonist” value in data set [3] turned out to be 28%. `CC(C)[C@H](NC(=O)c1cc(N(C2CN(C(c3ccc(Cl)cc3)c3ccc(Cl)cc3)C2)S(C)(=O)=O)cc(C(F)(F)F)c1)C(N)=O` [compound 56] showed a half-inhibitory concentration (IC50) in data set [2] of 41 nM. For `CNC(=O)[C@H](C)NC(=O)c1cc(NS(=O)(=O)CC2CN(C(c3ccc(Cl)cc3)c3ccc(Cl)cc3)C2)cc(C(F)(F)F)c1` [compound 57, 3-({1-[bis(4-chlorophenyl)methyl]azetidin-3-yl}methanesulphonylamino)-N—((S)-1-methylcarbamoylethyl)-5-trifluoromethylbenzamide], the “percentages of inhibition (gastrointestinal transit model)” value in data set [1] worked out at 78%. The “percentages of inhibition of the decrease in temperature induced by the agonist” value in data set [3] is given as 21%. With `C[C@H](NC(=O)c1cc(N(C2CN(C(c3ccc(Cl)cc3)c3ccc(Cl)cc3)C2)S(C)(=O)=O)cc(C(F)(F)F)c1)C(=O)O` [compound 68], in data set [1], the “percentages of inhibition (gastrointestinal transit model)” value turned out to be 7%. It took 24 nM to reach half-maximal inhibition in data set [2] (IC50). In the case of `C[C@H](NC(=O)c1cc(F)cc(N(C2CN(C(c3ccc(Br)cc3)c3ccc(Br)cc3)C2)S(C)(=O)=O)c1)C(N)=O` [compound 70, 3-({1-[bis(4-bromophenyl)methyl]azetidin-3-yl}methanesulphonylamino)-N—((S)-1-carbamoylethyl)-5-fluorobenzamide], the IC50 in data set [2] worked out at 31 nM. On the same count and under the same terms, for `CCOC(=O)[C@H](C)NC(=O)c1cc(F)cc(N(C2CN(C(c3ccc(Cl)cc3)c3ccc(Cl)cc3)C2)S(C)(=O)=O)c1` [compound 79] the value was 70 nM.
